Experimental data as given in article PMC6891286, “Towards the Development of an In vivo Chemical Probe for Cyclin G Associated Kinase (GAK)” (Molecules, 2019).

Columns and labels:
Assay in all cases: KINOMEscan
Format in all cases: binding
MAP3K15 = biological target: T1, MAP3K15 (Homo sapiens, UniProt Q6ZN16); settings: 35 at 1 µM; read-out: % inhibition
T1 construct: purchased Eurofins DiscoverX (KINOMEscan)
Experimental: (§1) KinomeScan Assay on 35 was performed as previously described at EuroFins DiscoverX (Fremont, CA, USA).

[1] = biological target: T2, RSK3(Kin.Dom.2-C-terminal) (Homo sapiens, UniProt Q15349); settings: 35 at 1 µM; read-out: % inhibition
T2 construct: RSK3(Kin.Dom.2-C-terminal); purchased Eurofins DiscoverX (KINOMEscan)
Experimental: as §1

HASPIN = biological target: T3, HASPIN (Homo sapiens, UniProt Q8TF76); settings: 35 at 1 µM; read-out: % inhibition
T3 construct: purchased Eurofins DiscoverX (KINOMEscan)
Experimental: as §1

LCK = biological target: T4, LCK (Homo sapiens, UniProt P06239); settings: 35 at 1 µM; read-out: % inhibition
T4 construct: purchased Eurofins DiscoverX (KINOMEscan)
Experimental: as §1

CSNK2A1 = biological target: T5, CSNK2A1 (Homo sapiens, UniProt P68400); settings: 35 at 1 µM; read-out: % inhibition
T5 construct: purchased Eurofins DiscoverX (KINOMEscan)
Experimental: as §1

TYRO3 = biological target: T6, TYRO3 (Homo sapiens, UniProt Q06418); settings: 35 at 1 µM; read-out: % inhibition
T6 construct: purchased Eurofins DiscoverX (KINOMEscan)
Experimental: as §1

FLT3-autoinhibited = biological target: T7, FLT3-autoinhibited (Homo sapiens, UniProt P36888); settings: 35 at 1 µM; read-out: % inhibition
T7 construct: purchased Eurofins DiscoverX (KINOMEscan)
Experimental: as §1

PAK4 = biological target: T8, PAK4 (Homo sapiens, UniProt O96013); settings: 35 at 1 µM; read-out: % inhibition
T8 construct: purchased Eurofins DiscoverX (KINOMEscan)
Experimental: as §1

MAP4K4 = biological target: T9, MAP4K4 (Homo sapiens, UniProt O95819); settings: 35 at 1 µM; read-out: % inhibition
T9 construct: purchased Eurofins DiscoverX (KINOMEscan)
Experimental: as §1

TLK1 = biological target: T10, TLK1 (Homo sapiens, UniProt Q9UKI8); settings: 35 at 1 µM; read-out: % inhibition
T10 construct: purchased Eurofins DiscoverX (KINOMEscan)
Experimental: as §1

MINK = biological target: T11, MINK (Homo sapiens, UniProt Q8N4C8); settings: 35 at 1 µM; read-out: % inhibition
T11 construct: purchased Eurofins DiscoverX (KINOMEscan)
Experimental: as §1

PIK3CA(M1043I) = biological target: T12, PIK3CA(M1043I) (Homo sapiens, UniProt P42336, M1043I); settings: 35 at 1 µM; read-out: % inhibition
T12 construct: purchased Eurofins DiscoverX (KINOMEscan)
Experimental: as §1

FLT1 = biological target: T13, FLT1 (Homo sapiens, UniProt P17948); settings: 35 at 1 µM; read-out: % inhibition
T13 construct: purchased Eurofins DiscoverX (KINOMEscan)
Experimental: as §1

SGK2 = biological target: T14, SGK2 (Homo sapiens, UniProt Q9HBY8); settings: 35 at 1 µM; read-out: % inhibition
T14 construct: purchased Eurofins DiscoverX (KINOMEscan)
Experimental: as §1

CDK7 = biological target: T15, CDK7 (Homo sapiens, UniProt P50613); settings: 35 at 1 µM; read-out: % inhibition
T15 construct: purchased Eurofins DiscoverX (KINOMEscan)
Experimental: as §1

EPHB3 = biological target: T16, EPHB3 (Homo sapiens, UniProt P54753); settings: 35 at 1 µM; read-out: % inhibition
T16 construct: purchased Eurofins DiscoverX (KINOMEscan)
Experimental: as §1

MERTK = biological target: T17, MERTK (Homo sapiens, UniProt Q12866); settings: 35 at 1 µM; read-out: % inhibition
T17 construct: purchased Eurofins DiscoverX (KINOMEscan)
Experimental: as §1

ROS1 = biological target: T18, ROS1 (Homo sapiens, UniProt P08922); settings: 35 at 1 µM; read-out: % inhibition
T18 construct: purchased Eurofins DiscoverX (KINOMEscan)
Experimental: as §1

KIT(V559D,T670I) = biological target: T19, KIT(V559D,T670I) (Homo sapiens, UniProt P10721, T670I/V559D); settings: 35 at 1 µM; read-out: % inhibition
T19 construct: purchased Eurofins DiscoverX (KINOMEscan)
Experimental: as §1

CDK9 = biological target: T20, CDK9 (Homo sapiens, UniProt P50750); settings: 35 at 1 µM; read-out: % inhibition
T20 construct: purchased Eurofins DiscoverX (KINOMEscan)
Experimental: as §1

BMPR2 = biological target: T21, BMPR2 (Homo sapiens, UniProt Q13873); settings: 35 at 1 µM; read-out: % inhibition
T21 construct: purchased Eurofins DiscoverX (KINOMEscan)
Experimental: as §1

MYLK = biological target: T22, MYLK (Homo sapiens, UniProt Q15746); settings: 35 at 1 µM; read-out: % inhibition
T22 construct: purchased Eurofins DiscoverX (KINOMEscan)
Experimental: as §1

AMPK-alpha2 = biological target: T23, AMPK-alpha2 (Homo sapiens, UniProt P54646); settings: 35 at 1 µM; read-out: % inhibition
T23 construct: purchased Eurofins DiscoverX (KINOMEscan)
Experimental: as §1

MAK = biological target: T24, MAK (Homo sapiens, UniProt P20794); settings: 35 at 1 µM; read-out: % inhibition
T24 construct: purchased Eurofins DiscoverX (KINOMEscan)
Experimental: as §1

[2] = biological target: T25, ABL1(Y253F)-phosphorylated (Homo sapiens, UniProt P00519, Y253F); settings: 35 at 1 µM; read-out: % inhibition
T25 construct: purchased Eurofins DiscoverX (KINOMEscan)
Experimental: as §1

PRKR = biological target: T26, PRKR (Homo sapiens, UniProt P19525); settings: 35 at 1 µM; read-out: % inhibition
T26 construct: purchased Eurofins DiscoverX (KINOMEscan)
Experimental: as §1

MKNK1 = biological target: T27, MKNK1 (Homo sapiens, UniProt Q9BUB5); settings: 35 at 1 µM; read-out: % inhibition
T27 construct: purchased Eurofins DiscoverX (KINOMEscan)
Experimental: as §1

MET = biological target: T28, MET (Homo sapiens, UniProt P08581); settings: 35 at 1 µM; read-out: % inhibition
T28 construct: purchased Eurofins DiscoverX (KINOMEscan)
Experimental: as §1

TGFBR2 = biological target: T29, TGFBR2 (Homo sapiens, UniProt P37173)
T29 construct: purchased Eurofins DiscoverX (KINOMEscan)
Experimental: as §1

CLK3 = biological target: T30, CLK3 (Homo sapiens, UniProt P49761); settings: 35 at 1 µM; read-out: % inhibition
T30 construct: purchased Eurofins DiscoverX (KINOMEscan)
Experimental: as §1

NDR1 = biological target: T31, NDR1 (Homo sapiens, UniProt Q15208); settings: 35 at 1 µM; read-out: % inhibition
T31 construct: purchased Eurofins DiscoverX (KINOMEscan)
Experimental: as §1

FLT3(K663Q) = biological target: T32, FLT3(K663Q) (Homo sapiens, UniProt P36888, K663Q); settings: 35 at 1 µM; read-out: % inhibition
T32 construct: purchased Eurofins DiscoverX (KINOMEscan)
Experimental: as §1

CASK = biological target: T33, CASK (Homo sapiens, UniProt O14936); settings: 35 at 1 µM; read-out: % inhibition
T33 construct: purchased Eurofins DiscoverX (KINOMEscan)
Experimental: as §1

STK36 = biological target: T34, STK36 (Homo sapiens, UniProt Q9NRP7); settings: 35 at 1 µM; read-out: % inhibition
T34 construct: purchased Eurofins DiscoverX (KINOMEscan)
Experimental: as §1

KIT(A829P) = biological target: T35, KIT(A829P) (Homo sapiens, UniProt P10721, A829P); settings: 35 at 1 µM; read-out: % inhibition
T35 construct: purchased Eurofins DiscoverX (KINOMEscan)
Experimental: as §1

FAK = biological target: T36, FAK (Homo sapiens, UniProt Q05397); settings: 35 at 1 µM; read-out: % inhibition
T36 construct: purchased Eurofins DiscoverX (KINOMEscan)
Experimental: as §1

FGFR2 = biological target: T37, FGFR2 (Homo sapiens, UniProt P21802); settings: 35 at 1 µM; read-out: % inhibition
T37 construct: purchased Eurofins DiscoverX (KINOMEscan)
Experimental: as §1

CSNK1D = biological target: T38, CSNK1D (Homo sapiens, UniProt P48730); settings: 35 at 1 µM; read-out: % inhibition
T38 construct: purchased Eurofins DiscoverX (KINOMEscan)
Experimental: as §1

IKK-epsilon = biological target: T39, IKK-epsilon (Homo sapiens, UniProt Q14164); settings: 35 at 1 µM; read-out: % inhibition
T39 construct: purchased Eurofins DiscoverX (KINOMEscan)
Experimental: as §1

MST1R = biological target: T40, MST1R (Homo sapiens, UniProt Q04912); settings: 35 at 1 µM; read-out: % inhibition
T40 construct: purchased Eurofins DiscoverX (KINOMEscan)
Experimental: as §1

DDR2 = biological target: T41, DDR2 (Homo sapiens, UniProt Q16832); settings: 35 at 1 µM; read-out: % inhibition
T41 construct: purchased Eurofins DiscoverX (KINOMEscan)
Experimental: as §1

FLT3(D835Y) = biological target: T42, FLT3(D835Y) (Homo sapiens, UniProt P36888, D835Y); settings: 35 at 1 µM; read-out: % inhibition
T42 construct: purchased Eurofins DiscoverX (KINOMEscan)
Experimental: as §1

T29 sequence (P37173 23-567): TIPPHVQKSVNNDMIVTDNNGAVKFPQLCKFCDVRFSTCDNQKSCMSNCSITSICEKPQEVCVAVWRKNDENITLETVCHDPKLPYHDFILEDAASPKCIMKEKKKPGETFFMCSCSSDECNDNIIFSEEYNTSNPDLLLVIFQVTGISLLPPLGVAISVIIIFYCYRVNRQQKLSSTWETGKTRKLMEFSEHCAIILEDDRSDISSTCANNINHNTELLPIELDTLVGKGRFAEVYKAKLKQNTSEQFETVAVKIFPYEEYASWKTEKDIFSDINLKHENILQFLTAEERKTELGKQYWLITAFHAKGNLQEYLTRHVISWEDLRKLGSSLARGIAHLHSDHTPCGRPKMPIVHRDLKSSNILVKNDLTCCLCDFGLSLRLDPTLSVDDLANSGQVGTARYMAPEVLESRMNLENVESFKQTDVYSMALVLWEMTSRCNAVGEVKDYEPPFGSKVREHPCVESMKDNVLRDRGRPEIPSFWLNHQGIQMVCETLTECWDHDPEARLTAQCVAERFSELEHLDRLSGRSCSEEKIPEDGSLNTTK
T27 sequence (Q9BUB5 whole entry): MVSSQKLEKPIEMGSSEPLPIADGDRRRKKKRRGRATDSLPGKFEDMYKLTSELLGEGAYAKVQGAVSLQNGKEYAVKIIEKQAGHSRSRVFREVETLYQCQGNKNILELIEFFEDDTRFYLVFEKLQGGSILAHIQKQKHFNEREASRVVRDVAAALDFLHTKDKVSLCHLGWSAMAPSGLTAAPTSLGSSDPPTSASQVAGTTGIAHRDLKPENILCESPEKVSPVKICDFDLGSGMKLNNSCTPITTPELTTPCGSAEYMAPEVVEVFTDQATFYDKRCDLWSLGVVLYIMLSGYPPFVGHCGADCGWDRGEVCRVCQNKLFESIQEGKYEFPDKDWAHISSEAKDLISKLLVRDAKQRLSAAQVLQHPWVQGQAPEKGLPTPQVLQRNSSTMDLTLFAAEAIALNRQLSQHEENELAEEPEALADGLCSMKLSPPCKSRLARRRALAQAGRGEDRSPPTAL
T20 sequence (P50750 whole entry): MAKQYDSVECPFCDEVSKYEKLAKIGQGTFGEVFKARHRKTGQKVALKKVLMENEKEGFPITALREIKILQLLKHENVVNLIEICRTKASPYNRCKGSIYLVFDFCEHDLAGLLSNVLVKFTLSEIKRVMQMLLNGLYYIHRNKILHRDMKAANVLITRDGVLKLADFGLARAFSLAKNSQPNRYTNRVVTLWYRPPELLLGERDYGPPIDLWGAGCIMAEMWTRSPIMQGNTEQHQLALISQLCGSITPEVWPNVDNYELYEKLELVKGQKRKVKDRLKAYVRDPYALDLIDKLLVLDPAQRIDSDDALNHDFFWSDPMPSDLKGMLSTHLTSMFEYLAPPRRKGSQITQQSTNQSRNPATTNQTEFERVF
T4 sequence (P06239 whole entry): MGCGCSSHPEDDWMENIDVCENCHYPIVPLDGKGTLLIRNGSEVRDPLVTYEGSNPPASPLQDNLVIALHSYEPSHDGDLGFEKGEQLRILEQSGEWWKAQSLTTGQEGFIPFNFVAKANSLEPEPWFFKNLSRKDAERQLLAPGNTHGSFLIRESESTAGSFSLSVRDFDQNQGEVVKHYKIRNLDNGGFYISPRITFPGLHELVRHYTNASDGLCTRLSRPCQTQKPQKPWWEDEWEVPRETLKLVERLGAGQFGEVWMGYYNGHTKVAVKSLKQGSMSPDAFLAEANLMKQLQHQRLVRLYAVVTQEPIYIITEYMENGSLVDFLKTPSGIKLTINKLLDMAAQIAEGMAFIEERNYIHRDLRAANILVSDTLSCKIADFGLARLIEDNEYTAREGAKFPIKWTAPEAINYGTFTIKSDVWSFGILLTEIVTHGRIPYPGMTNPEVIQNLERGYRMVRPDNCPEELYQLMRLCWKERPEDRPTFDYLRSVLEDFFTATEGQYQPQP
T14 sequence (Q9HBY8 whole entry): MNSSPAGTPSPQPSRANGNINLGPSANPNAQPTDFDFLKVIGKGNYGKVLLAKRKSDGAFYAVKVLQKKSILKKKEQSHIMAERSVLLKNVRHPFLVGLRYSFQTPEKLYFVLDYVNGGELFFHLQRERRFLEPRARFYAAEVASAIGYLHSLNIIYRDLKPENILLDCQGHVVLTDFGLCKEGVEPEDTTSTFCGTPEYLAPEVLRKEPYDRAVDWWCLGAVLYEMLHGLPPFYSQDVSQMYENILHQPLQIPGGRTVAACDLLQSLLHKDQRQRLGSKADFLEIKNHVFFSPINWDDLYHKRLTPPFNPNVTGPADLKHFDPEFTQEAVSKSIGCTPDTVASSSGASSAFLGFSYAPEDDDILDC
T38 sequence (P48730 whole entry): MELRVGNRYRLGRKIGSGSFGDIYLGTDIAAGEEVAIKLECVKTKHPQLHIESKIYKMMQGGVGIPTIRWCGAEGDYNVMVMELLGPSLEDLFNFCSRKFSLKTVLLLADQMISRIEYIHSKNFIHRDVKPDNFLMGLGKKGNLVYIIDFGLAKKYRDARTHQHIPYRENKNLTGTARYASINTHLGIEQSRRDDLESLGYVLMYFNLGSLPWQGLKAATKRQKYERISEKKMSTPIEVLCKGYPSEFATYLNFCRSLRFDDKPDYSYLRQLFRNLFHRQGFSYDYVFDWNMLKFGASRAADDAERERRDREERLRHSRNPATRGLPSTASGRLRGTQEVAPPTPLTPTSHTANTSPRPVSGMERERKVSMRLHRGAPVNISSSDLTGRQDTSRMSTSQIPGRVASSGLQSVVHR
T8 sequence (O96013 whole entry): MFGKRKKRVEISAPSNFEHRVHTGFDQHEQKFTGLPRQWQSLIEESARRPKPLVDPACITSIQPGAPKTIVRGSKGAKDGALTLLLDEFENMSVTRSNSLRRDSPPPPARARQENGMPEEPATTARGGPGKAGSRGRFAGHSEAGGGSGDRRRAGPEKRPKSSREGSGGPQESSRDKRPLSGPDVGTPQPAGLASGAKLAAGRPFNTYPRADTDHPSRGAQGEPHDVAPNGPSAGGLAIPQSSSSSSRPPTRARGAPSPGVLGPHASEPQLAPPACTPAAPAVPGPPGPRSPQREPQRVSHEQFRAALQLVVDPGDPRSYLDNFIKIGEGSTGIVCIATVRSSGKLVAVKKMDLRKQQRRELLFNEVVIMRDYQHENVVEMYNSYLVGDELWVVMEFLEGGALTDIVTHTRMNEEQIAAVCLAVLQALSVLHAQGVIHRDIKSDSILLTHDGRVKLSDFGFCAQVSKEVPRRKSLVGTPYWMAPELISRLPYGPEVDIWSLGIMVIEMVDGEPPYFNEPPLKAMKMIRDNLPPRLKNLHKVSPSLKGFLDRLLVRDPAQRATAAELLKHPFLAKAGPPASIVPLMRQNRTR
T40 sequence (Q04912 25-1400): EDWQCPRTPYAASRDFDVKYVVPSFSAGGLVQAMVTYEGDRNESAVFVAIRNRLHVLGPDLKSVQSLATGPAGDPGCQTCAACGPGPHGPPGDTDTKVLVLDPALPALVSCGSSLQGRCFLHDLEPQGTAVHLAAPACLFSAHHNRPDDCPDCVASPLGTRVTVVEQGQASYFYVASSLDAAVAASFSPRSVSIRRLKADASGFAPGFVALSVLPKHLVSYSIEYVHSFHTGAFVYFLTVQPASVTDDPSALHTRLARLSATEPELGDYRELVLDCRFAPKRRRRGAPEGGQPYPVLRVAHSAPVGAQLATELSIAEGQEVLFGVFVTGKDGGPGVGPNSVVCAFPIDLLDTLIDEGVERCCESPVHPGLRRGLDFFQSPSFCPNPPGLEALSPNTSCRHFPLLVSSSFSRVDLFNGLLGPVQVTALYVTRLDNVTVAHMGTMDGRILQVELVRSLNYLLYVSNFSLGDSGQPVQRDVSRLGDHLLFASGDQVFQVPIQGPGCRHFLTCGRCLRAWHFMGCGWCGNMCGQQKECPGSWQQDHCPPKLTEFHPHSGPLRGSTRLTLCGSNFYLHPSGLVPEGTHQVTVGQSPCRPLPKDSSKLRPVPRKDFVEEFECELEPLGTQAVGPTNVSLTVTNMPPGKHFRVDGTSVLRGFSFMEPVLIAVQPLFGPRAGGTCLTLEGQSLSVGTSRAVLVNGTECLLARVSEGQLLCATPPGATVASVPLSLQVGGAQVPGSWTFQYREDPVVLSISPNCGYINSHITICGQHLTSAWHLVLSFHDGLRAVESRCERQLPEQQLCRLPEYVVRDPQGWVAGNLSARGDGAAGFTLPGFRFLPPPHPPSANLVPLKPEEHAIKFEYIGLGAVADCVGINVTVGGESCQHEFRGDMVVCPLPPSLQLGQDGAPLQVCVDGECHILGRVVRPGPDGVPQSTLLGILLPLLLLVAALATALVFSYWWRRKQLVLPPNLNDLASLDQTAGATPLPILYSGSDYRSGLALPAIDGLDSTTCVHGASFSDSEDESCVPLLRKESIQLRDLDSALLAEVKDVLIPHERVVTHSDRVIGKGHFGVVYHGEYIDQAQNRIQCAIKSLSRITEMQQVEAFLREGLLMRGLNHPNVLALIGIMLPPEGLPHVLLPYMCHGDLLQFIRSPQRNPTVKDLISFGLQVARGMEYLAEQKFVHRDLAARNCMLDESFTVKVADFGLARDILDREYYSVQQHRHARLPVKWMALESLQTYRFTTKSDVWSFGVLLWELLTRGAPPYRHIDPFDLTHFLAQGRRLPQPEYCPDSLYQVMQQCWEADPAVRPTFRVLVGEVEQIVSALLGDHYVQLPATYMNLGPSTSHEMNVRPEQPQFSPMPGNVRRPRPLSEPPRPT
T2 sequence (Q15349 389-733 limits assumed): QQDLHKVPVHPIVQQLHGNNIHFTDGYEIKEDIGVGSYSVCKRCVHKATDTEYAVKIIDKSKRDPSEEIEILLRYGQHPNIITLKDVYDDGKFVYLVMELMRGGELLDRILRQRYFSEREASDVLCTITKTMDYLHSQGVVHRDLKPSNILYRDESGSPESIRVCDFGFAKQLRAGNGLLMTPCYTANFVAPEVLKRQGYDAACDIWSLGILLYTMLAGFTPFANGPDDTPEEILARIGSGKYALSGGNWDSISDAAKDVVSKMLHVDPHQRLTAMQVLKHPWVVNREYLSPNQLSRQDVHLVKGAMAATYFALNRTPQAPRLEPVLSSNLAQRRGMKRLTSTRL

With `Brc1ccc2nccc(Nc3ccc4cn[nH]c4c3)c2c1` [Compound 35, 6-Bromo-N-(1H-indazol-6-yl)quinolin-4-amine] the activity at 1 µM (MAP3K15) was 98%, the activity at 1 µM [1] was 100% and the activity at 1 µM (HASPIN) was 79%. For the same compound, the activity at 1 µM (LCK) was 100%, the activity at 1 µM (CSNK2A1) was 100% and the activity at 1 µM (TYRO3) was 99%. It also gave an activity at 1 µM (FLT3-autoinhibited) of 100%, an activity at 1 µM (PAK4) of 100% and an activity at 1 µM (MAP4K4) of 100%. For the same compound, the activity at 1 µM (TLK1) was 95%, the activity at 1 µM (MINK) was 100% and the activity at 1 µM (PIK3CA(M1043I)) was 99%. For the same compound, the activity at 1 µM (FLT1) was 100%, the activity at 1 µM (SGK2) was 96% and the activity at 1 µM (CDK7) was 100%. The activity at 1 µM (EPHB3) was 100%, the activity at 1 µM (MERTK) was 85% and the activity at 1 µM (ROS1) was 94%. For the same compound, the activity at 1 µM (KIT(V559D,T670I)) was 100%, the activity at 1 µM (CDK9) was 75% and the activity at 1 µM (BMPR2) was 100%. The activity at 1 µM (MYLK) was 100%, the activity at 1 µM (AMPK-alpha2) was 100% and the activity at 1 µM (MAK) was 100%. The activity at 1 µM [2] was 100%, the activity at 1 µM (PRKR) was 100% and the activity at 1 µM (MKNK1) was 79%. For the same compound, the activity at 1 µM (MET) was 100%, the activity at 1 µM (TGFBR2; 35 at 1 µM, read-out: % inhibition) was 18% and the inhibition at 1 µM (TGFBR2; KinomeScan, screened at 1 μM, read-out: kinases inhibited at 1 μM: TGFBR2) was 82%. It also gave an activity at 1 µM (CLK3) of 100%, an activity at 1 µM (NDR1) of 69% and an activity at 1 µM (FLT3(K663Q)) of 97%. It also gave an activity at 1 µM (CASK) of 68%, an activity at 1 µM (STK36) of 100% and an activity at 1 µM (KIT(A829P)) of 100%. For the same compound, the activity at 1 µM (FAK) was 99%, the activity at 1 µM (FGFR2) was 100% and the activity at 1 µM (CSNK1D) was 94%. For the same compound, the activity at 1 µM (IKK-epsilon) was 95%, the activity at 1 µM (MST1R) was 100% and the activity at 1 µM (DDR2) was 100%. For the same compound, the activity at 1 µM (FLT3(D835Y)) was 100%.
